This passage reports IC50 results from patent US9573887B2, “Naphthalene derivative” (Daito Chemix Corporation, priority 2010, dated 2017).

pIC50: −log10 of the molar value. Where a name gives a salt, the structure may show the parent alone.

The target of one assay is T1, Mouse VCP (Mus musculus, UniProt Q01853).
T1 construct: histidine tag (N); made in house; host or cells: Sf-9 insect cells (baculovirus vector pVL1392)
T1 sequence (Q01853 whole entry): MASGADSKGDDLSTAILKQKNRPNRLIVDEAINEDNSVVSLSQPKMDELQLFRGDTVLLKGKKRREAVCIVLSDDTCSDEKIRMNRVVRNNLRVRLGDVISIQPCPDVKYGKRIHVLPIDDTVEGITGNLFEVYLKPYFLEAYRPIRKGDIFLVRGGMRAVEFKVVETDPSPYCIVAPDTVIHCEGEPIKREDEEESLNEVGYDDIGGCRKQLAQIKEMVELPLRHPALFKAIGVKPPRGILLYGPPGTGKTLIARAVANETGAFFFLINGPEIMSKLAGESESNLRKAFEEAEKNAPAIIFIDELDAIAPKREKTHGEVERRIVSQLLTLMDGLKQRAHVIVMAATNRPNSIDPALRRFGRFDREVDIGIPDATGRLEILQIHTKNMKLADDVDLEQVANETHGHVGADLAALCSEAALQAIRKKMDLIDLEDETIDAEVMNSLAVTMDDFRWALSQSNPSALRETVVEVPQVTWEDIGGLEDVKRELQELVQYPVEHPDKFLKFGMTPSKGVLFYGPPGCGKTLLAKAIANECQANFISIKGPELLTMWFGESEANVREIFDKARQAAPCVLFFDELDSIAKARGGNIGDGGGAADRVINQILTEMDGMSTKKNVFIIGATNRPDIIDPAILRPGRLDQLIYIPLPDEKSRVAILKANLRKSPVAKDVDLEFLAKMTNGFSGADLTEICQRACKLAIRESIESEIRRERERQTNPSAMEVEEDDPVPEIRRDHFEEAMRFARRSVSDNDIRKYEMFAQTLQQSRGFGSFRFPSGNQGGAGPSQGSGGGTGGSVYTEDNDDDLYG
The assay can be described thus: ATPase activity of purified His-tagged VCP, [γ-32P]ATP, liberated phosphate by liquid scintillation. The assay is classed as biochemical. The following applies: compounds of Comparative Examples; determined in the same manner as the Examples. The procedure:
In one aspect, the effect of VCP regulators for regulating ATPase activity is determined, for example by the following exemplary assay. Mouse VCP cDNA (the amino acid sequence is completely identical among mouse, rat and human) is added with a DNA sequence corresponding to a histidine tag at the amino-terminal, subcloned into a baculovirus vector pVL1392 (BD Bioscience), and expressed in Sf-9 insect cells. The protein is purified with a nickel column. After the purification the concentration of the protein is adjusted to 0.25-0.5 μg/ml and the protein is stored in a solution containing 50 mM TrisCl pH 8.0, 5 mM EDTA, 10% glycerol, and 15 mM DTT at 4° C. 500 ng of the purified VCP is mixed with 100 μM [γ-^32P]ATP (18.5 GBq/mmol) and the test substance in 20 μL of ATPase buffer (20 mM HEPES (pH7.4), 50 mM KCl, 5 mM MgCl2, 15 mM DTT), and incubated at 37° C. for 10 minutes. The enzyme reaction is stopped with addition of 200 μL of an ice-cold solution containing 7% TCA and 1 mM K2HPO4. 50μ of a solution containing 3.75% ammonium molybdate and 0.02M tungstate silicic/3 N H2SO4 is added, followed by 300 μL of n-butylacetic acid, and then the liberated phosphate is extracted into the organic layer. The reaction tube is centrifuged for 5 minutes at 20,000 g to separate the aqueous layer and the organic layer, 200 μL of the organic layer is taken, and the beta ray radiated from the liberated phosphate is quantified with liquid scintillation counter. By measuring the ATPase activity in the presence of the test substance at various concentrations, ATPase inhibitory activity of the test substance is measured.
Mouse VCP cDNA was added with a DNA sequence corresponding to histidine tag at the amino-terminal, subcloned into a baculovirus vector pVL1392 (BD Bioscience), and expressed in Sf-9 insect cells. The protein was purified with a nickel column (GE Healthcare). The concentration of the protein was adjusted to 0.25-0.5 μg/ml and the protein was stored in a solution containing 50 mM TrisCl pH 8.0, 5 mM EDTA, 10% glycerol, and 15 mM DTT.
The ATPase activity was determined as follows. 500 ng of the purified VCP was mixed with 100 μM [γ-32P]ATP (18.5 GBq/mmol) and the test substance in 20 μL of ATPase buffer (20 mM HEPES (pH7.4), 50 mM KCl, 5 mM MgCl2, 15 mM DTT), and incubated at 37° C. for 10 minutes.
The enzyme reaction was stopped with addition of 200 μL of an ice-cold solution containing 7% TCA and 1 mM K2HPO4. 50μ of a solution containing 3.75% ammonium molybdate and 0.02M tungstate silicic/3 NH2SO4 was added, followed by 300 μL of n-butylacetic acid, and then the liberated phosphate was extracted into the organic layer. The reaction tube was centrifuged for 5 minutes at 20,000 g to separate the aqueous layer and the organic layer, 200 μL of the organic layer was taken, and the beta ray radiated from the liberated phosphate was quantified with liquid scintillation counter.
By measuring the ATPase activity in the presence of the test substance at various concentrations, ATPase inhibitory activity of the test substance was measured. IC50 of the each test substance was calculated by applying the measured values to the equation below using GraphPad Prism (GraphPad Software).
A word on the pIC50: it is the IC50 on a negative log10 scale, so that one unit is a factor of ten. Regarding `O=[N+]([O-])c1ccc(-c2cccc3c2sc2ccccc23)nc1` [Example 29, sodium salt], the pIC50 is less than 4.00.

Turning to `Nc1ccc(-c2cccc3c2sc2ccccc23)nc1` [Example 30, sodium salt], the pIC50 was less than 4.00.

The assay is the same for the next values; noted with them: compounds of Examples; ATPase inhibitory activity; 500 ng VCP, 100 μM ATP, 37° C., 10 minutes.
Regarding `CC(C)Oc1ccc(-c2ccc(/N=N/c3cc(S(=O)(=O)O)c4ccccc4c3N)cn2)cc1` [Example 28, 4-amino-3-[6-(4-isopropoxyphenyl)pyridine-3-ylazo]naphthalene-1-sulfonic acid sodium salt], the pIC50 is 6.38.

With `Nc1c(/N=N/c2ccc(-c3ccccc3Oc3ccccc3)nc2)cc(S(=O)(=O)O)c2ccccc12` [Example 29, 4-amino-3-[6-(2-phenoxyphenyl)pyridine-3-ylazo]naphthalene-1-sulfonic acid sodium salt], the pIC50 was 6.54.

Take `Nc1c(/N=N/c2ccc(/C=C/c3ccccc3)nc2)cc(S(=O)(=O)O)c2ccccc12` [Example 30, 4-amino-3-(6-styrylpyridine-3-ylazo)naphthalenesulfonic acid sodium salt]: the pIC50 is 5.94.

As for `Nc1c(/N=N/c2ccc(-c3cccc4c3sc3ccccc34)nc2)cc(S(=O)(=O)O)c2ccccc12` [Example 31, 4-amino-3-(6-dibenzothiophene-4-ylpyridine-3-ylazo)naphthalene-1-sulfonic acid sodium salt], the negative logarithm of the IC50 (pIC50) was 5.99.

In the case of `COc1cccc(-c2ccc(/N=N/c3cc(S(=O)(=O)O)c4ccccc4c3N)cn2)c1` [Example 32, 4-amino-3-[6-(3-methoxyphenyl)pyridine-3-ylazo]naphthalene-1-sulfonic acid sodium salt], the negative logarithm of the IC50 (pIC50) is 6.37.

Turning to `Cc1cccc(-c2ccc(/N=N/c3cc(S(=O)(=O)O)c4ccccc4c3N)cn2)c1C` [Example 33, 4-amino-3-[6-(2,3-dimethylphenyl)pyridine-3-ylazo]naphthalene-1-sulfonic acid sodium salt], the pIC50 is 6.52.

`Cc1ccc(C)c(-c2ccc(/N=N/c3cc(S(=O)(=O)O)c4ccccc4c3N)cn2)c1` [Example 34, 4-amino-3-[6-(2,5-dimethylphenyl)pyridine-3-ylazo]naphthalene-1-sulfonic acid sodium salt]: the pIC50 is 6.56.

Regarding `Cc1cc(C)cc(-c2ccc(/N=N/c3cc(S(=O)(=O)O)c4ccccc4c3N)cn2)c1` [Example 35, 4-amino-3-[6-(3,5-dimethylphenyl)pyridine-3-ylazo]naphthalene-1-sulfonic acid sodium salt], the pIC50 was 6.20.

In the case of `Nc1c(/N=N/c2ccc(-c3ncco3)nc2)cc(S(=O)(=O)O)c2ccccc12` [Example 36, 4-amino-3-(6-oxazole-2-ylpyridine-3-ylazo)naphthalene-1-sulfonic acid sodium salt], the pIC50 was 6.55.

Take `Nc1c(/N=N/c2ccc(-c3cccc(C(F)(F)F)c3)nc2)cc(S(=O)(=O)O)c2ccccc12` [Example 37, 4-amino-3-[6-(3-trifluoromethylphenyl)pyridine-3-ylazo]naphthalene-1-sulfonic acid sodium salt]: the negative-log IC50 (pIC50) is 6.14.

For `Nc1c(/N=N/c2ccc(-c3cccc4ccccc34)nc2)cc(S(=O)(=O)O)c2ccccc12` [Example 38, 4-amino-3-(6-naphthalene-1-ylpyridine-3-ylazo)naphthalene-1-sulfonic acid sodium salt], the pIC50 was 6.63.

Regarding `Nc1c(/N=N/c2ccc(-c3cccc4c3oc3ccccc34)nc2)cc(S(=O)(=O)O)c2ccccc12` [Example 39, 4-amino-3-(6-dibenzofuran-4-ylpyridine-3-ylazo)naphthalene-1-sulfonic acid sodium salt], the pIC50 was 6.12.

`COC(=O)CCC(=O)c1ccc(-c2ccc(/N=N/c3cc(S(=O)(=O)O)c4ccccc4c3N)cn2)cc1` [Example 40, methyl 4-{4-[5-(1-amino-4-sulfonaphthalene-2-ylazo)pyridine-2-yl]phenyl}-4-oxobutyrate sodium salt]: the pIC50 is 6.48.

Take `Nc1c(/N=N/c2ccc(-c3csc4ccccc34)nc2)cc(S(=O)(=O)O)c2ccccc12` [Example 41, 4-amino-3-(6-benzo[b]thiophene-3-ylpyridine-3-ylazo)naphthalene-1-sulfonic acid sodium salt]: the pIC50 was 6.68.

In the case of `Nc1c(/N=N/c2ccc(-c3cccc(-c4ccccc4)c3)nc2)cc(S(=O)(=O)O)c2ccccc12` [Example 42, 4-amino-3-(6-biphenyl-3-ylpyridine-3-ylazo)naphthalene-1-sulfonic acid sodium salt], the negative logarithm of the IC50 (pIC50) is 6.11.

Regarding `Nc1c(/N=N/c2ccc(-c3cccc4c3sc3ccccc34)nc2)cc(S(=O)(=O)O)c2ccccc12` [Example 43, 4-amino-3-(6-dibenzothiophene-4-ylpyridine-3-ylazo)naphthalene-1-sulfonic acid potassium salt], the negative-log IC50 (pIC50) is 5.98.

With `N#Cc1cccc(-c2ccc(/N=N/c3cc(S(=O)(=O)O)c4ccccc4c3N)cn2)c1` [Example 44, 4-amino-3-[6-(3-cyanophenyl)pyridine-3-ylazo]naphthalene-1-sulfonic acid sodium salt], the negative logarithm of the IC50 (pIC50) is 6.23.

Turning to `N#Cc1ccc(-c2ccc(/N=N/c3cc(S(=O)(=O)O)c4ccccc4c3N)cn2)cc1` [Example 45, 4-amino-3-[6-(4-cyanophenyl)pyridine-3-ylazo]naphthalene-1-sulfonic acid sodium salt], the pIC50 was 6.28.

Consider `Nc1c(/N=N/c2ccc(-c3ccc(C(=O)c4ccccc4)cc3)nc2)cc(S(=O)(=O)O)c2ccccc12` [Example 47, 4-amino-3-[6-(4-benzoylphenyl)pyridine-3-ylazo]naphthalene-1-sulfonic acid sodium salt], for which the negative logarithm of the IC50 (pIC50) is 6.23.

Consider `CCCOc1ccccc1-c1ccc(/N=N/c2cc(S(=O)(=O)O)c3ccccc3c2N)cn1` [Example 48, 4-amino-3-[6-(2-propoxyphenyl)pyridine-3-ylazo]naphthalene-1-sulfonic acid sodium salt], for which the negative-log IC50 (pIC50) was 6.90.

Regarding `Cc1cc(F)ccc1-c1ccc(/N=N/c2cc(S(=O)(=O)O)c3ccccc3c2N)cn1` [Example 49, 4-amino-3-[6-(4-fluoro-2-methylphenyl)pyridine-3-ylazo]naphthalene-1-sulfonic acid sodium salt], the pIC50 was 6.48.

As for `Nc1c(/N=N/c2cccnc2-c2ccccc2)cc(S(=O)(=O)O)c2ccccc12` [Example 50, 4-amino-3-(2-phenylpyridine-3-ylazo)naphthalene-1-sulfonic acid sodium salt], the pIC50 was 6.33.

Consider `Nc1c(/N=N/c2cccnc2-c2cccnc2)cc(S(=O)(=O)O)c2ccccc12` [Example 51, 4-amino-3-([2,3′]-bipyridinyl3-ylazo)naphthalene-1-sulfonic acid sodium salt], for which the negative-log IC50 (pIC50) is 5.51.

`Nc1c(/N=N/c2ccc(-c3cccnc3)nc2)cc(S(=O)(=O)O)c2ccccc12` [Example 52, 4-amino-3-([2,3′]bipyridinyl-5-ylazo)naphthalene-1-sulfonic acid sodium salt]: the negative logarithm of the IC50 (pIC50) was 5.86.

`Cc1cc(-c2cccnc2)ncc1/N=N/c1cc(S(=O)(=O)O)c2ccccc2c1N` [Example 53, 4-amino-3-(4-methyl-[2,3′]bipyridinyl-5-ylazo)naphthalene-1-sulfonic acid sodium salt]: the pIC50 is 5.94.
